Assay results taken from patent publication US9873683B2, “P2X4 receptor antagonist” (NIPPON CHEMIPHAR CO., LTD., priority 2013, dated 2018).
Counter-ions that a name gives are not always drawn.

target: human P2X4 receptor (Homo sapiens (Human), UniProt Q99571); assay: P2X4 receptor antagonist activity (ATP-induced intracellular calcium, Fura-2 AM); assay type: cell-based; details: 1321N1 cells stably expressing human P2X4 receptor; test substance 15 minutes before addition of ATP; Fura-2 AM F340/F380; read-out: Inhibitory activity IC50
Sequence (Q99571 whole entry): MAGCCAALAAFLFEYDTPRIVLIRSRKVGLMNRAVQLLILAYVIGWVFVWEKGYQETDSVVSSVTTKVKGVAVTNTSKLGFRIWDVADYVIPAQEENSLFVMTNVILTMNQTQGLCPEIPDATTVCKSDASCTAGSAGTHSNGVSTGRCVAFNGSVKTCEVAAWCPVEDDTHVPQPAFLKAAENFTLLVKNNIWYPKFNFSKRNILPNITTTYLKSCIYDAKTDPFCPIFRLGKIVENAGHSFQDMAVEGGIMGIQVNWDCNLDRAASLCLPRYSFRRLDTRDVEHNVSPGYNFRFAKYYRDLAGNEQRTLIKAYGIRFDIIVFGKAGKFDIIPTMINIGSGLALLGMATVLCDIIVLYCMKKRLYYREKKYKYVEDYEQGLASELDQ
Description: The ATP receptor (human P2X4) was introduced into the 1321N1 cells, and the cells were used as a stable ATP receptor expression system. The P2X4-expressing 1321N1 cells were seeded on a 96-well plate, cultured under the conditions of 37° C. and 5% CO2 for 24 hours, and used for calcium measurement. […] For the measurement, a microplate reader, Fluostar Optima (BMG Labtech), was used. The light emitted from a xenon lamp was passed through 340 nm and 380 nm filters, respectively, and irradiated on the cells, fluorescences of 510 nm, F340 and F380, emitted from the cells were measured, and change of the ratio F340/F380 was used as an index of change of intracellular calcium level. The measurement was performed by adding ATP to each well at a final concentration of 1 μM, and observing the ATP-induced Ca^2+ response over time.
The 1321N1 cells stably expressing human P2X4 receptor were seeded on a 96-well plate, cultured under the conditions of 37° C. and 5% CO2 for 24 hours, and then used for intracellular calcium measurement. Fura-2 AM, which is a calcium fluorescent indicator, was used for the intracellular calcium measurement. […] The ratio of fluorescence values obtained with excitation lights of 340 nm and 380 nm was used as an index of the change of intracellular calcium level, and the inhibitory activity of the test substance was calculated on the basis of the comparison with the value obtained in the absence of the test substance (control).

| Compound | IC50 |
| --- | --- |
| O=C1CC(=O)N(c2ccc(-n3nnnc3CCc3cccnc3)cc2)c2ccc3ccccc3c2N1 [Example 3, 5-[4-[5-[2-(Pyridin-3-yl)ethyl]-1H-tetrazol-1-yl]phenyl]-1H-naphtho[1,2-b][1,4]diazepine-2,4(3H,5H)-dione hydrochloride] | 380 nM |
| O=C1CC(=O)N(c2ccc(-n3ccnc3COc3ccccc3)cc2)c2ccc3ccccc3c2N1 [Example 68, 5-[4-[2-(Phenoxymethyl)-1H-imidazol-1-yl]phenyl]-1H-naphtho[1,2-b][1,4]diazepine-2,4(3H,5H)-dione] | 790 nM |
| O=C1CC(=O)N(c2ccc(-n3ccnc3CCc3cccc(C(F)(F)F)c3)cc2)c2ccc3ccccc3c2N1 [Example 38, 5-[4-[2-[3-(Trifluoromethyl)phenylethyl]-1H-imidazol-1-yl]phenyl]-1H-naphtho[1,2-b][1,4]diazepine-2,4(3H,5H)-dione hydrochloride] | 550 nM |
| N#Cc1ccccc1CCc1nccn1-c1ccc(N2C(=O)CC(=O)Nc3c2ccc2ccccc32)cc1 [Example 54, 2-[2-[1-[4-(2,4-Dioxo-3,4-dihydro-1H-naphtho[1,2-b][1,4]diazepin-5(2H)-yl)phenyl]-1H-imidazol-2-yl]ethyl]benzonitrile] | 190 nM |
| O=C1CC(=O)N(c2ccc(-n3ccnc3CCc3ccco3)cc2)c2ccc3ccccc3c2N1 [Example 66, 5-[4-[2-[2-(Furan-2-yl)ethyl]-H-imidazol-1-yl]-phenyl]-1H-naphtho[1,2-b][1,4]diazepine-2,4(3H,5H)-dione hydrochloride] | 550 nM |
| COc1c(F)cccc1CCc1nccn1-c1ccc(N2C(=O)CC(=O)Nc3c2ccc2ccccc32)cc1 [Example 83, 5-[4-[(2-(3-Fluoro-2-methoxyphenyl)ethyl)-1H-imidazol-1-yl]phenyl]-1H-naphtho[1,2-b][1,4]diazepine-2,4(3H,5H)-dione hydrochloride] | 87 nM |
| COc1cccc(CCc2nccn2-c2ccc(N3C(=O)CC(=O)Nc4c3ccc3c4CCC3)cc2)c1 [Example 61, 5-[4-[2-(3-Methoxyphenethyl)-1H-imidazol-1-yl]phenyl]-5,8,9,10-tetrahydroindeno[4,5-b][1,4]diazepine-2,4(1H,3H)-dione hydrochloride] | 74 nM |
| COc1cc(N2C(=O)CC(=O)Nc3c2ccc2ccccc32)ccc1-c1nccn1CCc1ccccc1 [Example 64, 5-[3-Methoxy-4-(1-phenethyl-1H-imidazol-2-yl)-phenyl]-1H-naphtho[1,2-b][1,4]diazepine-2,4(3H,5H)-dione] | 520 nM |
| O=C1CC(=O)N(c2ccc(-n3ccnc3CCc3cccc(F)c3)cc2)c2ccc3ccccc3c2N1 [Example 31, 5-[4-[(2-(3-Fluorophenyl)ethyl)-1H-imidazol-1-yl]phenyl]-1H-naphtho[1,2-b][1,4]diazepine-2,4(3H,5H)-dione hydrochloride] | 51 nM |
| O=C1CN=C(c2ccc(-n3nnnc3CCc3ccccc3)cc2)c2ccc3ccccc3c2N1 [Example 40, 5-[4-(5-Phenethyl-1H-tetrazol-1-yl)phenyl]-1H-naphtho[1,2-e][1,4]diazepin-2(3H)-one] | 630 nM |
| O=C1CC(=O)N(c2ccc(-n3ccnc3CNc3ccccc3)cc2)c2ccc3ccccc3c2N1 [Example 80, 5-[4-[2-[(Phenylamino)methyl]-1H-imidazol-1-yl]phenyl]-1H-naphtho[1,2-b][1,4]diazepine-2,4(3H,5H)-dione] | 1300 nM |
| O=C1CC(=O)N(c2ccc(-c3nccn3Cc3ccc(Cl)cc3)cc2)c2ccc3ccccc3c2N1 [Example 23, 5-[4-[1-(4-Chlorobenzyl)-1H-imidazol-2-yl]phenyl]-1H-naphtho[1,2-b][1,4]diazepine-2,4(3H,5H)-dione hydrochloride] | 300 nM |
| O=C1CC(=O)N(c2ccc(-n3ccnc3CCc3ccsc3)cc2)c2ccc3ccccc3c2N1 [Example 62, 5-[4-[2-[2-(Thiophen-3-yl)ethyl]-1H-imidazol-1-yl]phenyl]-1H-naphtho[1,2-b][1,4]diazepine-2,4(3H,5H)-dione hydrochloride] | 88 nM |
| O=C1CC(=O)N(c2ccc(-c3nccn3CCc3cccc(O)c3)cc2)c2ccc3ccccc3c2N1 [Example 27, 5-[4-[1-(3-Hydroxyphenethyl)-1H-imidazol-2-yl]phenyl]-1H-naphtho[1,2-b][1,4]diazepine-2,4(3H,5H)-dione] | 78 nM |
| O=C1CC(=O)N(c2ccc(-n3ccnc3-c3ccccc3)cc2)c2ccc3ccccc3c2N1 [Example 50, 5-[4-(2-Phenyl-1H-imidazol-1-yl)phenyl]-1H-naphtho[1,2-b][1,4]diazepine-2,4(3H,5H)-dione] | 3700 nM |
| O=C1CC(=O)N(c2ccc(-c3nccn3CCc3ccccc3)cc2)c2ccc3ccccc3c2N1 [Example 22, 5-[4-(1-Phenethyl-1H-imidazol-2-yl)phenyl]-1H-naphtho[1,2-b][1,4]diazepine-2,4(3H,5H)-dione hydrochloride] | 91 nM |

| Compound | IC50 |
| --- | --- |
| COc1ccccc1CCc1nccn1-c1ccc(N2C(=O)CC(=O)Nc3c2ccc2ccccc32)cc1 [Example 32, 5-[4-[(2-(2-Methoxyphenyl)ethyl)-1H-imidazol-1-yl]phenyl]-1H-naphtho[1,2-b][1,4]diazepine-2,4(3H,5H)-dione hydrochloride] | 180 nM |
| O=C1CC(=O)N(c2ccc(-n3ccnc3CCc3ccccn3)cc2)c2ccc3ccccc3c2N1 [Example 71, 5-[4-[[2-(Pyridin-2-yl)ethyl]-1H-imidazol-1-yl]phenyl]-1H-naphtho[1,2-b][1,4]diazepine-2,4(3H,5H)-dione dihydrochloride] | 590 nM |
| O=C1CC(=O)N(c2ccc(-n3nnnc3CCc3ccccc3)cc2)c2ccc3ccccc3c2N1 [Example 4, 5-[4-(5-Phenethyl-1H-tetrazol-1-yl)phenyl]-1H-naphtho[1,2-b][1,4]diazepine-2,4(3H,5H)-dione] | 44 nM |
| 5-[4-[(5-Phenylethyl)-1H-imidazol-4-yl]phenyl]-1H-naphtho[1,2-b][1,4]diazepine-2,4(3H,5H)-dione hydrochloride [Example 73] | 320 nM |
| O=C1CC(=O)N(c2ccc(-c3nccn3CCc3ccccc3)c(O)c2)c2ccc3ccccc3c2N1 [Example 65, 5-[3-Hydroxy-4-(1-phenethyl-1H-imidazol-2-yl)-phenyl]-1H-naphtho[1,2-b][1,4]diazepine-2,4(3H,5H)-dione] | 130 nM |
| O=C1CC(=O)N(c2ccc(-n3nnnc3Cc3ccccc3O)cc2)c2ccc3ccccc3c2N1 [Example 2, 5-[4-[5-(2-Hydroxybenzyl)-1H-tetrazol-1-yl]phenyl]-1H-naphtho[1,2-b][1,4]diazepine-2,4(3H,5H)-dione] | 37 nM |
| NC(=O)c1cccc(CCc2nccn2-c2ccc(N3C(=O)CC(=O)Nc4c3ccc3ccccc43)cc2)c1 [Example 57, 3-[2-[1-[4-(2,4-Dioxo-3,4-dihydro-1H-naphtho[1,2-b][1,4]diazepin-5(2H)-yl)phenyl]-1H-imidazol-2-yl]ethyl]benzamide] | 130 nM |
| O=C1CN=C(c2ccc(-n3ccnc3CCc3ccccc3)cc2)c2ccc3ccccc3c2N1 [Example 41, 5-[4-(2-Phenethyl-1H-imidazol-1-yl)phenyl]-1H-naphtho[1,2-e][1,4]diazepin-2(3H)-one dihydrochloride] | 650 nM |
| CN(C)c1ccccc1Cc1nnnn1-c1ccc(N2C(=O)CC(=O)Nc3c2ccc2ccccc32)cc1 [Example 47, 5-[4-[5-[2-(Dimethylamino)benzyl]-1H-tetrazol-1-yl]phenyl]-1H-naphtho[1,2-b][1,4]diazepine-2,4(3H,5H)-dione mesylate] | 94 nM |
| Cc1cccc(CCc2nnnn2-c2ccc(N3C(=O)CC(=O)Nc4c3ccc3ccccc43)cc2)n1 [Example 30, 5-[4-[5-[2-(6-Methylpyridin-2-ylethyl)-1H-tetrazol-1-yl]-phenyl]-1H-naphtho[1,2-b][1,4]diazepine-2,4(3H,5H)-dione hydrochloride] | 270 nM |
| COc1cccc(CCn2ccnc2-c2ccc(N3C(=O)CC(=O)Nc4c3ccc3ccccc43)cc2)c1 [Example 25, 5-[4 [1-(3-Methoxyphenethyl)-1H-imidazol-2-yl]phenyl]-1H-naphtho[1,2-b][1,4]diazepine-2,4(3H,5H)-dione] | 82 nM |
| O=C1CC(=O)N(c2ccc(-c3nc[nH]c3-c3ccccc3)cc2)c2ccc3ccccc3c2N1 [Example 72, 5-[4-(5-Phenyl-1H-imidazol-4-yl)phenyl]-1H-naphtho[1,2-b][1,4]diazepine-2,4(3H,5H)-dione hydrochloride] | 3400 nM |
| O=C1CC(=O)N(c2ccc(-n3ccnc3CCc3ccccc3F)cc2)c2ccc3c(c2N1)CCC3 [Example 67, 5-[4-[2-(2-Fluorophenethyl)-1H-imidazol-1-yl]phenyl]-5,8,9,10-tetrahydroindeno[4,5-b][1,4]diazepine-2,4(1H,3H)-dione] | 53 nM |
| COc1ccccc1Cc1nnnn1-c1ccc(C2=NCC(=O)Nc3c2ccc2ccccc32)cc1 [Example 19, 5-[4-[5-(2-Methoxybenzyl)-1H-tetrazol-1-yl]phenyl]-1H-naphtho[1,2-e][1,4]diazepin-2(3H)-one] | 320 nM |
| O=C1CC(=O)N(c2ccc(-n3ccnc3CCc3cccc(F)c3)cc2)c2ccc3c(c2N1)CCC3 [Example 79, 5-[4-[2-(3-Fluorophenethyl)-1H-imidazol-1-yl]phenyl]-5,8,9,10-tetrahydroindeno[4,5-b][1,4]diazepine-2,4(1H,3H)-dione hydrochloride] | 39 nM |
